We go through seven molecules from patent publication US7786106B2, “Substituted benzene derivatives or salts thereof” (Astellas Pharma Inc., priority 2003, dated 2010).

The test system of experiment [1] is extrinsic coagulation time (PT). Briefly: Ex vivo measurement of coagulation time in cynomolgus monkeys (oral administration), extrinsic coagulation time (PT). The following applies: for Test on Measurement of Coagulation Time in Cynomolgus Monkeys (PT): relative ratio of coagulation time to control, blood collection point with the most potent extension. As for the experimental part:
4) Test on Ex Vivo Measurement of Coagulation Time in Cynomolgus Monkeys (Oral Administration)
A drug (5 mg/ml or 0.5 mg/ml) which was dissolved (suspended) in 0.5% methylcellulose was compulsorily administered per os at a dose of 2 ml/kg (10 mg/kg or 1 mg/kg) via an oral gavage after blood collection before the administration of the drug to a male cynomolgus monkeys (body weight around 4 kg) fasted for 12 hours or longer and, after 1, 2, 4, 6 and 8 hour(s), 2 ml of blood was collected from femoral vein using 1/10 volume of 3.8% sodium citrate and blood plasma was separated by means of centrifugal treatment of 3,000 rpm for 10 minutes. Using the resulting blood plasma, extrinsic coagulation time (PT) and intrinsic coagulation time (APTT) were measured in accordance with the following methods a) and b). The experiment was carried out under non-anesthetization.
a) Extrinsic Coagulation Time (PT)
Ortho Brain Thromboplastin (54 mg/vial; a freeze-dried preparation; Ortho-Clinical Diagnostics) was dissolved in 2.5 ml of Milli-Q water and preliminarily warmed at 37° C. The above-separated blood plasma (50 μl) was warmed at 37° C. for 1 minute, 50 μl of the above-mentioned thromboplastin solution was added and the coagulation time was measured. KC10 of Amelung was used for the measurement of the coagulation time.

The target in experiment [2] is T1, human factor Xa (Homo sapiens, UniProt P00742).
T1 construct: purchased Enzyme Research Labs
Description: In vitro test on measurement of coagulation time by human activated blood coagulation factor X (human plasma). Type of experiment: biochemical. To be noted: for Test on Measurement of Coagulation Time by Human Activated Blood Coagulation Factor X (CT2): CT2 = concentration by which the coagulation time is prolonged 2-fold, human blood plasma; for anti-blood coagulation action (extension of coagulation time), in words: in vitro, human plasma. As to the method:
1) An In Vitro Test on Measurement of Coagulation Time by Human Activated Blood Coagulation Factor X
To 90 μl of human blood plasma were added 10 μl of a drug or a physiological saline and 50 μl of human factor Xa (Enzyme Research Labs), incubation was carried out at 30° C. for 3 minutes, 100 μl of 20 mM CaCl2 previously warmed at 37° C. were added and the time until coagulation was measured by a coagulo-meter (KC10 of Amelung). With regard to the human blood plasma, each 45 ml of blood were collected from vein of elbow of six healthy persons using a syringe in which 5 ml of 3.8% sodium citrate were contained and centrifuged at 4° C. for 15 minutes at 3,000 rpm and the separate blood plasma was pooled and frozen, then thawed before use. With regard to the human factor Xa, the concentration by which the coagulation time when a physiological saline solution (control) was added was about 30 to 40 seconds was selected. A CT2 value (concentration by which the coagulation time is prolonged to an extent of 2-fold) was determined by plotting the drug concentrations and relative value (fold) of the coagulation time to the control, followed by subjecting to linear regression.

Structures can show the parent of a compound that is named as a salt.

T1 sequence (P00742 235-488 limits assumed): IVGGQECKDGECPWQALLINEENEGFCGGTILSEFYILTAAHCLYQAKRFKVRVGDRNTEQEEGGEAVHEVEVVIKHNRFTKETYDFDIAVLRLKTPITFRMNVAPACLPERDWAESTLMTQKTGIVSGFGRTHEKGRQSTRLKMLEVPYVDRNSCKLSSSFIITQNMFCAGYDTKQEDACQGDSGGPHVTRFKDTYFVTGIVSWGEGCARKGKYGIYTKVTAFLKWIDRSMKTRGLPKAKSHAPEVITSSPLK
T1 sequence (P00742 41-179 partner limits assumed): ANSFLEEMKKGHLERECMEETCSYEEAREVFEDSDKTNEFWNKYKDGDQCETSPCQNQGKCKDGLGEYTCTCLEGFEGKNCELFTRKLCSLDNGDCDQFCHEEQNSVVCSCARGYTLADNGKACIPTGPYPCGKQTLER

Consider `CC(=O)N[C@H]1[C@H](Oc2cc(Br)cc(C(=O)Nc3ccc(Cl)cn3)c2NC(=O)C2CCN(C(C)C)CC2)O[C@H](CO)[C@@H](O)[C@@H]1O` [Example 3, 2′-(2-acetamido-2-deoxy-β-D-glucopyranosyloxy)-4′-bromo-6′-[(5-chloro-2-pyridyl)-carbamoyl]-1-isopropylpiperidine-4-carboxanilide trifluoroacetate], for which the “Test on Measurement of Coagulation Time in Cynomolgus Monkeys (PT)” value (shortened to “Test on Measurement of Coagulation Time … (PT)”) in experiment [1] (10 mg/kg per os) is 5.60.

With `CC(C)N1CCC(C(=O)Nc2c(O)cc(Br)cc2C(=O)Nc2ccc(Cl)cn2)CC1` [Example 19, 4′-bromo-2′-[(5-chloro-2-pyridyl)carbamoyl]-6′-hydroxy-1-isopropylpiperidine-4-carboxanilide hydrochloride], the “Test on Measurement of Coagulation Time … (PT)” value in experiment [1] (1 mg/kg per os) stood at 2.26.

As for `CC(C)N1CCC(CNc2c(O)cc(Cl)cc2C(=O)Nc2ccc(Cl)cn2)CC1` [Example 10], in experiment [2], the “Test on Measurement of Coagulation Time by Human Activated Blood Coagulation Factor X (CT2)” value (from here on “Test on Measurement of Coagulation Time … (CT2)”) came to 0.617 µM and the “anti-blood coagulation action (extension of coagulation time), in words” value (shortened to “anti-blood coagulation action”) is “extend the coagulation time at low concentration”.

As to `CC(C)N1CCC(C(=O)Nc2ccc(Cl)cc2C(=O)Nc2ccc(Cl)cn2)CC1` [Control Compound, reference compound], the “Test on Measurement of Coagulation Time … (PT)” value in experiment [1] (10 mg/kg per os) is recorded as 2.00.

For the molecule `COC[C@H]1O[C@@H](Oc2cc(Br)cc(C(=O)Nc3ccc(Cl)cn3)c2NC(=O)C2CCN(C(C)C)CC2)[C@H](O)[C@@H](O)[C@@H]1O` [Example 8], in experiment [2], the “Test on Measurement of Coagulation Time … (CT2)” value is 0.137 µM and the “anti-blood coagulation action” value is “extend the coagulation time at low concentration”.

On to `CC(C)N1CCC(C(=O)Nc2c(O[C@@H]3O[C@H](CO)[C@H](O)[C@H](O)[C@H]3O)cc(Br)cc2C(=O)Nc2ccc(Cl)cn2)CC1` [Example 1, trifluoroacetate], for which the “Test on Measurement of Coagulation Time … (PT)” value in experiment [1] (10 mg/kg per os) was found to be 7.69. The “extending action for the coagulation time compared with control (Example 44 of WO 00/39118)” value in experiment [1] (same dose as control (10 mg/kg), oral, cynomolgus monkeys) is recorded as “longer extending action for the coagulation time”. Besides, in experiment [2], the “Test on Measurement of Coagulation Time … (CT2)” value worked out at 0.295 µM and the “anti-blood coagulation action” value was “extend the coagulation time at low concentration”.

Regarding `CC(C)N1CCC(C(=O)Nc2c(O)cc(Cl)cc2C(=O)Nc2ccc(Cl)cn2)CC1` [Example 18, 4′-chloro-2′-[(5-chloro-2-pyridyl)carbamoyl]-6′-hydroxy-1-isopropylpiperidine-4-carboxanilide hydrochloride], the “Test on Measurement of Coagulation Time … (PT)” value in experiment [1] (1 mg/kg per os) is 1.94. In experiment [2], the “Test on Measurement of Coagulation Time … (CT2)” value was found to be 0.153 µM and the “anti-blood coagulation action” value is given as “extend the coagulation time at low concentration”.
